Legend:
[1] = refractive index (other wavelength) (dimensionless); xn = mol fraction of the nth substance listed; conditions: 108 kPa, Liquid, Wavelength=632.8 nm, minimum deviation method, x2 = 0
[2] = refractive index (other wavelength) (dimensionless); conditions: 108 kPa, Liquid, Wavelength=632.8 nm, minimum deviation method

CCO [ethanol] + CCCCn1cc[n+](C)c1.F[P-](F)(F)(F)(F)F
[1]
Conditions | refractive index
315.24 K | 1.3509
317.21 K | 1.3501
319.26 K | 1.3492
321.31 K | 1.3483
323.3 K | 1.3474
325.39 K | 1.3465

CCCCn1cc[n+](C)c1.F[P-](F)(F)(F)(F)F [1-butyl-3-methylimidazolium hexafluorophosphate]
[2]
Conditions | refractive index
315.21 K | 1.4038
317.26 K | 1.4032
319.23 K | 1.4027
321.47 K | 1.4021
323.47 K | 1.4016
325.4 K | 1.4011

CCO [ethanol]
[2]
Conditions | refractive index
315.24 K | 1.3509
317.21 K | 1.3501
319.26 K | 1.3492
321.31 K | 1.3483
323.3 K | 1.3474
325.39 K | 1.3465

Source: the NIST ThermoML archive (doi:10.1016/j.jct.2017.07.014)
